Counter-ions that a name gives are not always drawn.
What follows are compounds tested on F-2,6-P2 in PANC-1 cells (assay: Quantification of F-2,6-P2 (Van Schaftingen coupled enzyme assay) in PANC-1 cells). Details: Homo sapiens; PANC-1 cells; read-out: IC50 based on quantification of F-2,6-P2.
Assay type: cell-based, human
Text: A method for quantification of F-2,6-P2 has been described by Van Schaftingen et al. (1982) Eur. J. Biochem. 129, 191-5. This sensitive assay is based on the potent activation of pyrophosphate dependent phosphofructokinase-1 (PPi-PFK) from potato tubers by F-2,6-P2. The use of a series of coupled enzymes leads to a consumption of NADH (nicotinamide adenine dinucleotide) that can be followed spectrophotometrically (an updated protocol is available in Van Schaftingen, (1984) Methods of Enzymatic Analysis (Bergmeyer, H. U., ed.), 3rd edn., vol. 6, pp. 335-341, Verlag Chemie, Weinheim). A protocol for measurements in 96-well microtiter plate format is also available (Bruni et al., (1989) Anal. Biochem. 178, 324-6).
The levels of F-2,6-P2 have been determined using the van Shaftingen assay as described in the protocol below, in six different cancer cell lines endogenously expressing varying levels of the different isoforms of PFK-2/BPase-2 (MCF-7, PANC-1, NUGC-3, SW480, SW620 and MIA PaCa-2). All reagents were purchased from commercial sources or prepared in-house.
Cell line B (PANC-1, human pancreatic carcinoma cell line): PANC-1 cells (ATCC-CRL-1469), lot. no. 58564651. Cells were seeded at a concentration of ˜250 000 cells/mL in 100 μL growth medium (˜25 000 cells/well).
Growth medium (cell lines B-F): Dulbecco's Modified Eagle's Medium, DMEM, VWR, LONZ12-604F; 10% FBS, Invitrogen, 10270-106.
Starvation medium (cell lines A-F): DMEM/F12 without phenol red and glucose free, SVA, 991373; 0.25% FBS, Invitrogen, 10270-106.
Induction medium (cell lines A-F): DMEM/F12 without phenol red and glucose free, SVA, 991373; 0.25% FBS, Invitrogen, 10270-106 (same as starvation medium).
Cells were seeded in 96-well Corning Costar tissue culture plates (CLS3595, Sigma-Aldrich) using the concentrations specified above for the different cell lines A-F and incubated over night at 37° C. and 5% CO2. Row A in the plate was left empty and the cell lines added to rows B-H. Next day the growth medium was discarded and replaced with 100 μL starvation medium. The plates were incubated for 18 h at 37° C. and 5% CO2. After 18 h of starvation the cells were induced with 100 μL compound or control solutions. Compounds were either tested in two concentrations (50 μM and 10 μM) or in dose response curves starting from 50 μM. The final DMSO concentration in assay plates was 0.5%. Also a dose response curve of a reference inhibitor was included in row H on each plate. All compounds were tested in duplicate plates. Compounds (in 96 well CLS 3365, Sigma-Aldrich plates) were serial diluted in DMSO from 10 mM compound DMSO stock solutions with Janus (automated liquid handling workstation from PerkinElmer). Five μL were transferred to a Greiner deep well plate (736-0155, VWR) with 495 μL starvation medium. The final start concentration of compounds in the dilution plate was 100 μM, 1% DMSO. For compounds tested as single points, 10 mM compound solutions were diluted five fold in DMSO to 2 mM, followed by the transfer of 5 μL to separate dilution plates with 495 μL starvation medium. The final concentrations of compounds in these dilution plates were 100 or 20 μM, respectively, and final concentration of DMSO was 1%. The plates were incubated at 37° C. and 5% CO2 for 1 h, followed by the addition of 10 μL 20 mM D-glucose in starvation medium. Controls, with and without 1 mM glucose, were included in row B. The final assay volume was 210 μL per well. After 2 h of incubation at 37° C. and 5% CO2, the supernatants were discarded and the cells lysed by the addition of 25 μL 250 mM NaOH. The plates were incubated at 37° C. and 5% CO2 for 5 min followed by an addition of 75 μL MilliQ dH2O. The supernatants were further diluted with 210 μL MilliQ dH2O to a final concentration of 20 mM NaOH. 200 μL were transferred to NUNC 96-well plates (7322661, VWR) and the plates were sealed and stored at −20° C. until analysis. […]

Q: Which IC50 does the source give for `O=C(OCc1ccccc1)c1ccc(NS(=O)(=O)c2cc(Cl)c(Cl)s2)cc1O` [Example 71, Benzyl 4-{[(4,5-dichloro-2-thienyl)sulfonyl]amino}-2-hydroxybenzoate] here?
A: The IC50 was 800 nM.

Q: For `COC(=O)c1ccc(NS(=O)(=O)c2cccc(-c3ccccc3)c2)cc1O` [Example 87, Methyl 4-[(biphenyl-3-ylsulfonyl)amino]-2-hydroxybenzoate], which IC50 is on record?
A: Its IC50 is 1600 nM.

Q: How did the IC50 turn out when `COC(=O)c1ccc(NS(=O)(=O)c2cccc(-c3ccncc3)c2)cc1O` [Example 89, Methyl 2-hydroxy-4-{[(3-pyridin-4-ylphenyl)sulfonyl]amino}benzoate trifluoroacetate] was run?
A: The IC50 was 6700 nM.

Q: With `COC(=O)c1ccc(NS(=O)(=O)c2cccc(-c3ccc4ncccc4c3)c2)cc1O` [Example 91, Methyl 2-hydroxy-4-{[(3-quinolin-6-ylphenyl)sulfonyl]amino}benzoate trifluoroacetate] as the compound, how does the IC50 read?
A: Its IC50 is 4500 nM.

Q: How did the IC50 turn out when `COC(=O)c1ccc(NS(=O)(=O)c2cccc(-c3ccc(C(C)=O)s3)c2)cc1O` [Example 95, Methyl 4-({[3-(5-acetyl-2-thienyl)phenyl]sulfonyl}amino)-2-hydroxybenzoate] was run?
A: The IC50 was 1700 nM.

Q: With `COC(=O)c1ccc(NS(=O)(=O)c2cccc(-c3ccc(OC(F)(F)F)cc3)c2)cc1O` [Example 99, Methyl 2-hydroxy-4-({[4′-(trifluoromethoxy)biphenyl-3-yl]sulfonyl}amino)benzoate] as the compound, how does the IC50 read?
A: Its IC50 is 2400 nM.

Q: With `COC(=O)c1ccc(NS(=O)(=O)c2cccc(-c3ccc(C(=O)N(C)C)cc3)c2)cc1O` [Example 101, Methyl 4-({[4′-(dimethylcarbamoyl)biphenyl-3-yl]sulfonyl}amino)-2-hydroxybenzoate] as the compound, how does the IC50 read?
A: Its IC50 is 8400 nM.

Q: With `COC(=O)c1ccc(NS(=O)(=O)c2cc(-c3cccc(N)c3)c(Cl)s2)cc1O` [Example 107, Methyl 4-({[4-(3-aminophenyl)-5-chlorothiophen-2-yl]sulfonyl}amino)-2-hydroxybenzoate trifluoroacetate] as the compound, how does the IC50 read?
A: Its IC50 is 2800 nM.

Q: How did the IC50 turn out when `COC(=O)c1ccc(NS(=O)(=O)c2cc(-c3ccc(NS(C)(=O)=O)cc3)c(Cl)s2)cc1O` [Example 108, Methyl 4-{[(5-chloro-4-{4-[(methylsulfonyl)amino]phenyl}thiophen-2-yl)sulfonyl]amino}-2-hydroxybenzoate] was run?
A: Its IC50 is 7700 nM.

Q: With `COC(=O)c1ccc(NS(=O)(=O)c2cc(-c3cccnc3)c(Cl)s2)cc1O` [Example 111, Methyl 4-{[(5-chloro-4-pyridin-3-ylthiophen-2-yl)sulfonyl]amino}-2-hydroxybenzoate] as the compound, how does the IC50 read?
A: Its IC50 is 4600 nM.

Q: `COC(=O)c1ccc(NS(=O)(=O)c2cccc(-c3cccc(C(N)=O)c3)c2)cc1O` [Example 113, Methyl 4-{[(3′-carbamoylbiphenyl-3-yl)sulfonyl]amino}-2-hydroxybenzoate] was tested. Which IC50 did it give?
A: Its IC50 is 5400 nM.

Q: With `COC(=O)c1ccc(NS(=O)(=O)c2cc(-c3ccc4c(c3)CCO4)cc(C(F)(F)F)c2)cc1O` [Example 116, Methyl 4-({[3-(2,3-dihydro-1-benzofuran-5-yl)-5-(trifluoromethyl)phenyl]sulfonyl}amino)-2-hydroxybenzoate] as the compound, how does the IC50 read?
A: The IC50 was 1700 nM.

Q: `COC(=O)c1ccc(NS(=O)(=O)c2ccc(-c3cc(F)ccc3F)s2)cc1O` [Example 118, Methyl 4-({[5-(2,5-difluorophenyl)thiophen-2-yl]sulfonyl}amino)-2-hydroxybenzoate] was tested. Which IC50 did it give?
A: The IC50 was 2000 nM.

Q: How did the IC50 turn out when `COC(=O)c1ccc(NS(=O)(=O)Cc2cccc(-c3ccc4c(c3)CCO4)c2)cc1O` [Example 122, Methyl 4-({[3-(2,3-dihydro-1-benzofuran-5-yl)benzyl]sulfonyl}amino)-2-hydroxybenzoate] was run?
A: The IC50 was 5900 nM.

Q: For `COC(=O)c1ccc(NS(=O)(=O)Cc2ccc(-c3ccccc3O)cc2)cc1O` [Example 126, Methyl 2-hydroxy-4-({[(2′-hydroxybiphenyl-4-yl)methyl]sulfonyl}amino)benzoate], which IC50 is on record?
A: The IC50 was 1400 nM.

Q: `COC(=O)c1ccc(NS(=O)(=O)c2cccc(-c3cccc(C(=O)OC(C)C)c3)c2)cc1O` [Example 128, 1-Methylethyl 3′-{[3-hydroxy-4-(methoxycarbonyl)phenyl]sulfamoyl}biphenyl-3-carboxylate] was tested. Which IC50 did it give?
A: The IC50 was 13300 nM.

Q: `COCCOC(=O)c1ccc(NS(=O)(=O)c2cc(-c3ccccc3O)c(Cl)s2)cc1O` [Example 133, 2-Methoxyethyl 4-({[5-chloro-4-(2-hydroxyphenyl)-2-thienyl]sulfonyl}amino)-2-hydroxybenzoate] was tested. Which IC50 did it give?
A: The IC50 was 1200 nM.

Q: How did the IC50 turn out when `COC(=O)c1ccc(NS(=O)(=O)c2cccc(C(=O)OC(C)C)c2)cc1O` [Example 137, Methyl 2-hydroxy-4-[({3-[(1-methylethoxy)carbonyl]phenyl}sulfonyl)amino]benzoate] was run?
A: Its IC50 is 11100 nM.

Q: With `COC(=O)c1ccc(NS(=O)(=O)c2cccc(N3CCCCC3)c2)cc1O` [Example 142, Methyl 2-hydroxy-4-({[3-(piperidin-1-yl)phenyl]sulfonyl}amino)benzoate] as the compound, how does the IC50 read?
A: The IC50 was 1500 nM.

Same assay, conditions: at 12.5-50 μM in PANC-1 cells

Q: How did the “inhibition (F-2,6-P2 levels)” value turn out when `O=C(Oc1ccccc1)c1ccc(NS(=O)(=O)c2cc(Cl)c(Cl)s2)cc1O` [Example 73, Phenyl 4-{[(4,5-dichloro-2-thienyl)sulfonyl]amino}-2-hydroxybenzoate] was run?
A: Its value is at least 50%.

Q: With `COC(=O)c1cccc(-c2cc(S(=O)(=O)Nc3ccc(C(=O)OC)c(O)c3)sc2Cl)c1` [Example 77, Methyl 4-[({5-chloro-4-[3-(methoxycarbonyl)phenyl]thiophen-2-yl}sulfonyl)amino]-2-hydroxybenzoate] as the compound, how does the “inhibition (F-2,6-P2 levels)” value read?
A: The value was at least 50%.

Q: For `COC(=O)c1ccc(NS(=O)(=O)c2cnc(Cl)c(-c3cccc(F)c3)c2)cc1O` [Example 83, Methyl 4-({[6-chloro-5-(3-fluorophenyl)pyridin-3-yl]sulfonyl}amino)-2-hydroxybenzoate], which “inhibition (F-2,6-P2 levels)” value is on record?
A: Its value is at least 50%.

Q: How did the “inhibition (F-2,6-P2 levels)” value turn out when `COC(=O)c1ccc(NS(=O)(=O)c2cccc(-c3ccc(SC)cc3)c2)cc1O` [Example 98, Methyl 2-hydroxy-4-({[4′-(methylsulfanyl)biphenyl-3-yl]sulfonyl}amino)benzoate] was run?
A: The value was at least 50%.

Q: For `COC(=O)c1ccc(NS(=O)(=O)c2cccc(-c3ccc(C(F)(F)F)cc3)c2)cc1O` [Example 100, Methyl 2-hydroxy-4-({[4′-(trifluoromethyl)biphenyl-3-yl]sulfonyl}amino)benzoate], which “inhibition (F-2,6-P2 levels)” value is on record?
A: Its value is at least 50%.

Q: Which “inhibition (F-2,6-P2 levels)” value does the source give for `COC(=O)c1ccc(NS(=O)(=O)c2cccc(OC)c2)cc1O` [Example 121, Methyl 2-hydroxy-4-{[(3-methoxyphenyl)sulfonyl]amino}benzoate] here?
A: Its value is at least 50%.

Q: How did the “inhibition (F-2,6-P2 levels)” value turn out when `COC(=O)c1ccc(NS(=O)(=O)c2cccc(C(C)=O)c2)cc1O` [Example 129, Methyl 4-{[(3-acetylphenyl)sulfonyl]amino}-2-hydroxybenzoate] was run?
A: The value was at least 50%.

Q: With `COC(=O)c1ccc(NS(=O)(=O)c2cncc(-c3cccc(OC)c3F)c2)cc1O` [Example 130, Methyl 4-({[5-(2-fluoro-3-methoxyphenyl)pyridin-3-yl]sulfonyl}amino)-2-hydroxybenzoate] as the compound, how does the “inhibition (F-2,6-P2 levels)” value read?
A: The value was at least 50%.

Q: With `CC(=O)Oc1cc(NS(=O)(=O)c2cccc3ccccc23)ccc1C(=O)OCc1ccccc1` [Example 140, Benzyl 2-acetoxy-4-[(1-naphthylsulfonyl)amino]benzoate] as the compound, how does the “inhibition (F-2,6-P2 levels)” value read?
A: Its value is at least 50%.

Reference: patent US9718809B2, “Bisarylsulfonamides useful in the treatment of inflammation and cancer” (Kancera AB, priority 2011, dated 2017)
